Test results published in ChEMBL document CHEMBL5505999, “Discovery of anti-inflammatory agents from 3, 4-dihydronaphthalene-1(2H)-one derivatives by inhibiting NLRP3 inflammasome activation” (Eur J Med Chem, 2024).

Test system: not listed separately
Experiment: Cytotoxicity against mouse RAW264.7 cells assessed as survival rate at 2.5 uM incubated overnight by CCK-8 assay relative to control
Type: toxicity, cell-based
Conditions: read-out: Survival

In order of rising viability at 2.5 µM:
1. O=C1/C(=C/c2ccc(-n3ccnc3)cc2)CCc2cc(F)ccc21  80.7%
2. O=C1/C(=C/c2ccc(N3CCOCC3)cc2)CCc2cc(F)ccc21  81.1%
3. O=C1/C(=C/c2ccc(N3CCOCC3)cc2)CCc2ccc(O)cc21  81.6%
4. COc1ccc2c(c1)C(=O)/C(=C/c1ccc(N3CCOCC3)cc1)CC2  82.2%
5. COc1ccc2c(c1)C(=O)/C(=C/c1ccc(N3CCOCC3)nc1)CC2  82.4%
6. O=C1/C(=C/c2ccc(-n3ccnc3)cc2)CCc2cc(Br)ccc21  82.6%
7. O=C1/C(=C/c2ccc(N3CCOCC3)cc2)CCc2ccc(Br)cc21  82.7%
8. O=C1/C(=C/c2ccc(N3CCOCC3)cc2)CCc2ccc(F)cc21  82.7%
9. COc1ccc2c(c1)C(=O)/C(=C/c1ccc(N3CCN(C)CC3)nc1)CC2  84.9%
10. O=C1/C(=C/c2ccc(N3CCOCC3)nc2)CCc2cc(F)ccc21  85.2%
11. CN1CCN(c2ccc(/C=C3\CCc4ccc(O)cc4C3=O)cn2)CC1  85.5%
12. O=C1/C(=C/c2ccc(N3CCOCC3)nc2)CCc2cc(Br)ccc21  86.2%
13. CN1CCN(c2ccc(/C=C3\CCc4cc(Br)ccc4C3=O)cc2)CC1  87%
14. O=C1/C(=C/c2ccc(-n3ccnc3)cc2)CCc2ccc(O)cc21  87.1%
15. CN1CCN(c2ccc(/C=C3\CCc4cc(Br)ccc4C3=O)cn2)CC1  87.8%
16. COc1ccc2c(c1)C(=O)/C(=C/c1ccc(-n3ccnc3)cc1)CC2  88.7%
17. CN1CCN(c2ccc(/C=C3\CCc4ccc(F)cc4C3=O)cn2)CC1  88.7%
18. COc1ccc2c(c1)CC/C(=C\c1ccc(N3CCN(C)CC3)nc1)C2=O  88.9%
19. COc1ccc2c(c1)C(=O)/C(=C/c1ccc(N3CCN(C)CC3)cn1)CC2  89%
20. COc1ccc2c(c1)CC/C(=C\c1ccc(N3CCOCC3)cc1)C2=O  89.3%
21. CN1CCN(c2ccc(/C=C3\CCc4cc(F)ccc4C3=O)cc2)CC1  90.5%
22. O=C1/C(=C/c2ccc(-n3ccnc3)cc2)CCc2ccc(Br)cc21  91.2%
23. COc1ccc2c(c1)CC/C(=C\c1ccc(N3CCN(C)CC3)cc1)C2=O  91.3%
24. CN1CCN(c2ccc(/C=C3\CCc4ccc(F)cc4C3=O)cc2)CC1  91.5%
25. COc1ccc2c(c1)CC/C(=C\c1ccc(-n3ccnc3)cc1)C2=O  92.8%
26. O=C1/C(=C/c2ccc(N3CCOCC3)cc2)CCc2cc(Br)ccc21  92.8%
27. CN1CCN(c2ccc(/C=C3\CCc4ccc(F)cc4C3=O)nc2)CC1  93.5%
28. COc1ccc2c(c1)CC/C(=C\c1ccc(N3CCOCC3)nc1)C2=O  96%
29. O=C1/C(=C/c2ccc(N3CCOCC3)nc2)CCc2ccc(Br)cc21  96.2%
30. CN1CCN(c2ccc(/C=C3\CCc4cc(Br)ccc4C3=O)nc2)CC1  96.8%
31. COc1ccc2c(c1)C(=O)/C(=C/c1ccc(N3CCN(C)CC3)cc1)CC2  98%
32. O=C1/C(=C/c2ccc(-n3ccnc3)cc2)CCc2ccc(F)cc21  98%
33. CN1CCN(c2ccc(/C=C3\CCc4cc(F)ccc4C3=O)cn2)CC1  98.2%
34. CN1CCN(c2ccc(/C=C3\CCc4ccc(O)cc4C3=O)nc2)CC1  98.6%
35. O=C1/C(=C/c2ccc(N3CCOCC3)nc2)CCc2ccc(F)cc21  99.8%
36. CN1CCN(c2ccc(/C=C3\CCc4ccc(O)cc4C3=O)cc2)CC1  103%
37. CN1CCN(c2ccc(/C=C3\CCc4ccc(Br)cc4C3=O)cn2)CC1  104%
38. O=C1/C(=C/c2ccc(N3CCOCC3)nc2)CCc2ccc(O)cc21  104%
39. COc1ccc2c(c1)C(=O)/C(=C/c1ccc(OC)c(C(F)(F)F)c1)CC2  114%
40. CN1CCN(c2ccc(/C=C3\CCc4ccc(Br)cc4C3=O)cc2)CC1  116%

Test system: RAW264.7
Experiment: Anti-inflammatory activity in mouse RAW264.7 cells assessed as inhibition of LPS-induced TNF-alpha production at 2.5 uM pretreated with compound for 2 hrs followed by LPS addition and measured after 22 hrs by ELISA relative to control
Type: functional
Conditions: time 24 hrs

In order of falling inhibition at 2.5 µM:
1. CN1CCN(c2ccc(/C=C3\CCc4ccc(O)cc4C3=O)cn2)CC1  55.9%
2. CN1CCN(c2ccc(/C=C3\CCc4ccc(Br)cc4C3=O)cn2)CC1  51%
3. COc1ccc2c(c1)C(=O)/C(=C/c1ccc(OC)c(C(F)(F)F)c1)CC2  51%
4. CN1CCN(c2ccc(/C=C3\CCc4ccc(Br)cc4C3=O)cc2)CC1  49.8%
5. COc1ccc2c(c1)CC/C(=C\c1ccc(N3CCOCC3)nc1)C2=O  45%
6. CN1CCN(c2ccc(/C=C3\CCc4cc(Br)ccc4C3=O)cc2)CC1  42.4%
7. CN1CCN(c2ccc(/C=C3\CCc4ccc(O)cc4C3=O)nc2)CC1  41.6%
8. CN1CCN(c2ccc(/C=C3\CCc4ccc(O)cc4C3=O)cc2)CC1  41.1%
9. CN1CCN(c2ccc(/C=C3\CCc4cc(Br)ccc4C3=O)nc2)CC1  40.6%
10. COc1ccc2c(c1)C(=O)/C(=C/c1ccc(-n3ccnc3)cc1)CC2  39.8%
11. O=C1/C(=C/c2ccc(-n3ccnc3)cc2)CCc2ccc(Br)cc21  39.8%
12. COc1ccc2c(c1)CC/C(=C\c1ccc(N3CCN(C)CC3)nc1)C2=O  39.6%
13. O=C1/C(=C/c2ccc(-n3ccnc3)cc2)CCc2cc(F)ccc21  39.4%
14. CN1CCN(c2ccc(/C=C3\CCc4cc(Br)ccc4C3=O)cn2)CC1  39%
15. CN1CCN(c2ccc(/C=C3\CCc4ccc(F)cc4C3=O)cc2)CC1  37.3%
16. CN1CCN(c2ccc(/C=C3\CCc4cc(F)ccc4C3=O)cc2)CC1  37.1%
17. COc1ccc2c(c1)C(=O)/C(=C/c1ccc(N3CCN(C)CC3)cn1)CC2  35.3%
18. CN1CCN(c2ccc(/C=C3\CCc4ccc(F)cc4C3=O)cn2)CC1  35.3%
19. COc1ccc2c(c1)C(=O)/C(=C/c1ccc(N3CCN(C)CC3)nc1)CC2  34.7%
20. COc1ccc2c(c1)CC/C(=C\c1ccc(N3CCN(C)CC3)cc1)C2=O  34.6%
21. COc1ccc2c(c1)C(=O)/C(=C/c1ccc(N3CCN(C)CC3)cc1)CC2  33.6%
22. CN1CCN(c2ccc(/C=C3\CCc4cc(F)ccc4C3=O)cn2)CC1  32.8%
23. O=C1/C(=C/c2ccc(-n3ccnc3)cc2)CCc2cc(Br)ccc21  32.4%
24. O=C1/C(=C/c2ccc(N3CCOCC3)cc2)CCc2ccc(O)cc21  32.3%
25. O=C1/C(=C/c2ccc(N3CCOCC3)cc2)CCc2cc(F)ccc21  32.1%
26. COc1ccc2c(c1)CC/C(=C\c1ccc(-n3ccnc3)cc1)C2=O  31.7%
27. COc1ccc2c(c1)CC/C(=C\c1ccc(N3CCOCC3)cc1)C2=O  31.6%
28. O=C1/C(=C/c2ccc(N3CCOCC3)nc2)CCc2cc(Br)ccc21  31.4%
29. O=C1/C(=C/c2ccc(N3CCOCC3)nc2)CCc2cc(F)ccc21  31%
30. O=C1/C(=C/c2ccc(N3CCOCC3)nc2)CCc2ccc(O)cc21  30.8%
31. CN1CCN(c2ccc(/C=C3\CCc4ccc(F)cc4C3=O)nc2)CC1  30.5%
32. COc1ccc2c(c1)C(=O)/C(=C/c1ccc(N3CCOCC3)cc1)CC2  30.5%
33. O=C1/C(=C/c2ccc(N3CCOCC3)cc2)CCc2cc(Br)ccc21  29.6%
34. O=C1/C(=C/c2ccc(N3CCOCC3)cc2)CCc2ccc(F)cc21  29.5%
35. COc1ccc2c(c1)C(=O)/C(=C/c1ccc(N3CCOCC3)nc1)CC2  27.6%
36. O=C1/C(=C/c2ccc(-n3ccnc3)cc2)CCc2ccc(O)cc21  25.3%
37. O=C1/C(=C/c2ccc(N3CCOCC3)nc2)CCc2ccc(F)cc21  23.8%
38. O=C1/C(=C/c2ccc(N3CCOCC3)nc2)CCc2ccc(Br)cc21  23.8%
39. O=C1/C(=C/c2ccc(N3CCOCC3)cc2)CCc2ccc(Br)cc21  22.4%
40. O=C1/C(=C/c2ccc(-n3ccnc3)cc2)CCc2ccc(F)cc21  19%

Test system: RAW264.7
Experiment: Anti-inflammatory activity in mouse RAW264.7 cells assessed as inhibition of LPS-induced IL-6 production at 2.5 uM pretreated with compound for 2 hrs followed by LPS addition and measured after 22 hrs by ELISA relative to control
Type: functional
Conditions: time 24 hrs

In order of rising inhibition at 2.5 µM:
1. O=C1/C(=C/c2ccc(-n3ccnc3)cc2)CCc2ccc(F)cc21  34.3%
2. O=C1/C(=C/c2ccc(N3CCOCC3)nc2)CCc2ccc(Br)cc21  36.1%
3. O=C1/C(=C/c2ccc(N3CCOCC3)cc2)CCc2ccc(Br)cc21  38.6%
4. O=C1/C(=C/c2ccc(N3CCOCC3)nc2)CCc2ccc(F)cc21  40.2%
5. COc1ccc2c(c1)C(=O)/C(=C/c1ccc(OC)c(C(F)(F)F)c1)CC2  44.2%
6. COc1ccc2c(c1)C(=O)/C(=C/c1ccc(N3CCOCC3)nc1)CC2  44.3%
7. O=C1/C(=C/c2ccc(N3CCOCC3)cc2)CCc2ccc(F)cc21  46.2%
8. O=C1/C(=C/c2ccc(N3CCOCC3)cc2)CCc2cc(Br)ccc21  46.4%
9. CN1CCN(c2ccc(/C=C3\CCc4ccc(F)cc4C3=O)nc2)CC1  47.2%
10. COc1ccc2c(c1)C(=O)/C(=C/c1ccc(N3CCOCC3)cc1)CC2  47.2%
11. O=C1/C(=C/c2ccc(N3CCOCC3)nc2)CCc2cc(Br)ccc21  47.5%
12. O=C1/C(=C/c2ccc(N3CCOCC3)nc2)CCc2cc(F)ccc21  47.7%
13. O=C1/C(=C/c2ccc(N3CCOCC3)nc2)CCc2ccc(O)cc21  48%
14. COc1ccc2c(c1)CC/C(=C\c1ccc(-n3ccnc3)cc1)C2=O  48.2%
15. CN1CCN(c2ccc(/C=C3\CCc4cc(F)ccc4C3=O)cc2)CC1  48.4%
16. O=C1/C(=C/c2ccc(N3CCOCC3)cc2)CCc2cc(F)ccc21  48.7%
17. O=C1/C(=C/c2ccc(N3CCOCC3)cc2)CCc2ccc(O)cc21  48.9%
18. O=C1/C(=C/c2ccc(-n3ccnc3)cc2)CCc2cc(Br)ccc21  49%
19. CN1CCN(c2ccc(/C=C3\CCc4cc(F)ccc4C3=O)cn2)CC1  49.3%
20. COc1ccc2c(c1)C(=O)/C(=C/c1ccc(N3CCN(C)CC3)cc1)CC2  50.1%
21. O=C1/C(=C/c2ccc(-n3ccnc3)cc2)CCc2ccc(O)cc21  50.2%
22. COc1ccc2c(c1)CC/C(=C\c1ccc(N3CCN(C)CC3)cc1)C2=O  50.9%
23. COc1ccc2c(c1)C(=O)/C(=C/c1ccc(N3CCN(C)CC3)nc1)CC2  51.1%
24. COc1ccc2c(c1)C(=O)/C(=C/c1ccc(N3CCN(C)CC3)cn1)CC2  51.6%
25. CN1CCN(c2ccc(/C=C3\CCc4ccc(F)cc4C3=O)cn2)CC1  51.6%
26. COc1ccc2c(c1)CC/C(=C\c1ccc(N3CCOCC3)cc1)C2=O  53.1%
27. CN1CCN(c2ccc(/C=C3\CCc4cc(Br)ccc4C3=O)cc2)CC1  53.3%
28. CN1CCN(c2ccc(/C=C3\CCc4cc(Br)ccc4C3=O)cn2)CC1  54.7%
29. O=C1/C(=C/c2ccc(-n3ccnc3)cc2)CCc2cc(F)ccc21  54.9%
30. COc1ccc2c(c1)CC/C(=C\c1ccc(N3CCN(C)CC3)nc1)C2=O  55%
31. COc1ccc2c(c1)C(=O)/C(=C/c1ccc(-n3ccnc3)cc1)CC2  55.3%
32. O=C1/C(=C/c2ccc(-n3ccnc3)cc2)CCc2ccc(Br)cc21  55.3%
33. CN1CCN(c2ccc(/C=C3\CCc4cc(Br)ccc4C3=O)nc2)CC1  55.9%
34. CN1CCN(c2ccc(/C=C3\CCc4ccc(O)cc4C3=O)cc2)CC1  56.3%
35. CN1CCN(c2ccc(/C=C3\CCc4ccc(O)cc4C3=O)nc2)CC1  56.7%
36. CN1CCN(c2ccc(/C=C3\CCc4ccc(F)cc4C3=O)cc2)CC1  57.3%
37. COc1ccc2c(c1)CC/C(=C\c1ccc(N3CCOCC3)nc1)C2=O  59.2%
38. CN1CCN(c2ccc(/C=C3\CCc4ccc(Br)cc4C3=O)cc2)CC1  62.6%
39. CN1CCN(c2ccc(/C=C3\CCc4ccc(Br)cc4C3=O)cn2)CC1  63.4%
40. CN1CCN(c2ccc(/C=C3\CCc4ccc(O)cc4C3=O)cn2)CC1  66.6%

Test system: RAW264.7
Experiment: Anti-inflammatory activity in mouse RAW264.7 cells assessed as inhibition of LPS-induced TNF-alpha production at 10 uM pretreated with compound for 2 hrs followed by LPS addition and measured after 22 hrs by ELISA relative to control
Type: functional
Conditions: time 24 hrs

Work on S=C(S)N1CCCC1 [PYRROLIDINE DITHIOCARBAMATE] yielded an inhibition at 10 µM of 36%.

Test system: RAW264.7
Experiment: Anti-inflammatory activity in mouse RAW264.7 cells assessed as inhibition of LPS-induced IL-6 production at 10 uM pretreated with compound for 2 hrs followed by LPS addition and measured after 22 hrs by ELISA relative to control
Type: functional
Conditions: time 24 hrs

In the case of S=C(S)N1CCCC1 [PYRROLIDINE DITHIOCARBAMATE], the inhibition at 10 µM is reported as 48%.
